Measured values reported in ChEMBL document CHEMBL4033749, “Synthesis and biological evaluation of 5-fatty-acylamido-1, 3, 4-thiadiazole-2-thioglycosides” (Bioorg Med Chem Lett, 2017).
Values after ≈ are worked out from the molar mass of the structure shown. Active and inactive are the calls of the source. No cut-off for these calls is given here.

Assays:
HeLa = assay: Cytotoxicity against human HeLa cells incubated for 24 hrs by MTT asasy; assay type: functional, cell-based
CHO-K1 = assay: Cytotoxicity against CHOK1 cells incubated for 24 hrs by MTT asasy; assay type: cell-based, Cricetulus griseus
MDA-MB-231 = assay: Cytotoxicity against human MDA-MB-231 cells incubated for 24 hrs by MTT asasy; assay type: functional, cell-based
[1] = test system: Staphylococcus epidermidis; assay: Antibacterial activity Staphylococcus epidermidis MTCC 9041 by agar well method; assay type: functional
Klebsiella pneumoniae = assay: Antibacterial activity Klebsiella pneumoniae MTCC 618 by agar well method; assay type: functional
Staphylococcus aureus = assay: Antibacterial activity Staphylococcus aureus MTCC 96 by agar well method; assay type: functional
SK-OV-3 = assay: Cytotoxicity against human SKOV3 cells incubated for 24 hrs by MTT asasy; assay type: functional, cell-based
Pseudomonas aeruginosa = assay: Antibacterial activity Pseudomonas aeruginosa MTCC 1688 by agar well method; assay type: functional
DU-145 = assay: Cytotoxicity against human DU145 cells incubated for 24 hrs by MTT asasy; assay type: functional, cell-based
Escherichia coli = assay: Antibacterial activity Escherichia coli MTCC 443 by agar well method; assay type: functional
Bacillus subtilis = assay: Antibacterial activity Bacillus subtilis MTCC 441 by agar well method; assay type: functional
[2] = Homo sapiens, HeLa, 24 h, read-out: IC50
[3] = Cricetulus griseus, CHO-K1, 24 h, read-out: IC50
[4] = Homo sapiens, MDA-MB-231, 24 h, read-out: IC50
[5] = Homo sapiens, DU-145, 24 h, read-out: IC50
[6] = Homo sapiens, SK-OV-3, 24 h, read-out: IC50

SMILES | IC50 (HeLa; [2]) | IC50 (CHO-K1; [3]) | IC50 (MDA-MB-231; [4]) | MIC [1] | MIC (Klebsiella pneumoniae) | MIC (Staphylococcus aureus) | IC50 (SK-OV-3; sk-ov-3) | MIC (Pseudomonas aeruginosa) | IC50 (DU-145; [5]) | MIC (Escherichia coli) | MIC (Bacillus subtilis) | IC50 (DU-145; du-145) | IC50 (CHO-K1; cho-k1) | IC50 (SK-OV-3; [6]) | IC50 (HeLa; hela) | IC50 (MDA-MB-231; mda-mb-231)
CCCCCCCCCCCCCCCCCC(=O)Nc1nnc(S[C@@H]2O[C@H](COC(C)=O)[C@H](OC(C)=O)[C@H](OC(C)=O)[C@H]2OC(C)=O)s1 | 97.5 µM | 44.7 µM | 23.6 µM | inactive | inactive | inactive | Not Active | inactive | 31.2 µM | inactive | inactive | – | – | – | – | –
CCCCCC(=O)Nc1nnc(S[C@@H]2O[C@H](COC(C)=O)[C@H](OC(C)=O)[C@H](OC(C)=O)[C@H]2OC(C)=O)s1 | 19.8 µM | 24.4 µM | 25.4 µM | inactive | inactive | inactive | Not Active | inactive | – | inactive | inactive | Not Active | – | – | – | –
CCCCCCCCCCCC(=O)Nc1nnc(S[C@@H]2O[C@H](COC(C)=O)[C@H](OC(C)=O)[C@H](OC(C)=O)[C@H]2OC(C)=O)s1 | 51.9 µM | 27.7 µM | 26.7 µM | inactive | inactive | inactive | Not Active | inactive | 16.9 µM | inactive | inactive | – | – | – | – | –
CCCCCCCCCCCCCC(=O)Nc1nnc(S[C@@H]2O[C@H](CO)[C@H](O)[C@H](O)[C@H]2O)s1 | 31 µM | – | 33.3 µM | > 150 µg/mL | 25 µg/mL (≈ 49.4 µM) | > 150 µg/mL | Not Active | > 150 µg/mL | – | > 150 µg/mL | 50 µg/mL (≈ 98.9 µM) | Not Active | Not Active | – | – | –
CCCCCCCC(=O)Nc1nnc(S[C@@H]2O[C@H](COC(C)=O)[C@H](OC(C)=O)[C@H](OC(C)=O)[C@H]2OC(C)=O)s1 | 43.6 µM | 19.2 µM | 18.9 µM | inactive | inactive | inactive | Not Active | inactive | – | inactive | inactive | Not Active | – | – | – | –
COc1cccc2c1C(=O)c1c(O)c3c(c(O)c1C2=O)C[C@@](O)(C(=O)CO)C[C@@H]3O[C@H]1C[C@H](N)[C@H](O)[C@H](C)O1 [DOXORUBICIN] | 0.7 µM | – | 0.7 to 0.8 µM | – | – | – | – | – | 0.7 to 0.8 µM | – | – | – | Not Active | 0.7 to 0.8 µM | – | –
CN[C@@H]1[C@H](O[C@H]2[C@H](O[C@H]3[C@H](O)[C@@H](O)[C@H](N=C(N)N)[C@@H](O)[C@@H]3N=C(N)N)O[C@@H](C)[C@]2(O)C=O)O[C@@H](CO)[C@H](O)[C@H]1O [STREPTOMYCIN] | – | – | – | 3.12 µg/mL (≈ 5.37 µM) | 3.12 µg/mL (≈ 5.37 µM) | 6.25 µg/mL (≈ 10.7 µM) | – | 1.56 µg/mL (≈ 2.69 µM) | – | 6.25 µg/mL (≈ 10.7 µM) | 6.25 µg/mL (≈ 10.7 µM) | – | – | – | – | –
CCCCCCCCCC(=O)Nc1nnc(S[C@@H]2O[C@H](COC(C)=O)[C@H](OC(C)=O)[C@H](OC(C)=O)[C@H]2OC(C)=O)s1 | 44.9 µM | 19.4 µM | 19.2 µM | inactive | inactive | inactive | Not Active | inactive | 34.4 µM | inactive | inactive | – | – | – | – | –
CCCCCCCC/C=C\CCCCCCCCCCCC(=O)Nc1nnc(S[C@@H]2O[C@H](CO)[C@H](O)[C@H](O)[C@H]2O)s1 | 13.5 µM | – | 70.4 µM | > 150 µg/mL | > 150 µg/mL | > 150 µg/mL | Not Active | > 150 µg/mL | – | > 150 µg/mL | > 150 µg/mL | Not Active | Not Active | – | – | –
CCCCCCCC/C=C\CCCCCCCC(=O)Nc1nnc(S[C@@H]2O[C@H](COC(C)=O)[C@H](OC(C)=O)[C@H](OC(C)=O)[C@H]2OC(C)=O)s1 | 54.4 µM | 26.3 µM | 23.6 µM | inactive | inactive | inactive | Not Active | inactive | 42 µM | inactive | inactive | – | – | – | – | –
CCCCCCCCCCCCCCCCCC(=O)Nc1nnc(S[C@@H]2O[C@H](CO)[C@H](O)[C@H](O)[C@H]2O)s1 | 11.2 µM | – | 67.1 µM | > 150 µg/mL | > 150 µg/mL | > 150 µg/mL | Not Active | > 150 µg/mL | – | > 150 µg/mL | > 150 µg/mL | Not Active | Not Active | – | – | –
CO[C@@]12[C@H](COC(N)=O)C3=C(C(=O)C(C)=C(N)C3=O)N1C[C@@H]1N[C@@H]12 [MITOMYCIN] | – | 13.2 to 13.4 µM | – | – | – | – | Not Active | – | – | – | – | Not Active | – | – | Not Active | Not Active
CCCCCC(=O)Nc1nnc(S[C@@H]2O[C@H](CO)[C@H](O)[C@H](O)[C@H]2O)s1 | 45.6 µM | – | 28.7 µM | > 150 µg/mL | > 150 µg/mL | > 150 µg/mL | Not Active | > 150 µg/mL | – | > 150 µg/mL | > 150 µg/mL | Not Active | Not Active | – | – | –
CC1(C)S[C@@H]2[C@H](NC(=O)Cc3ccccc3)C(=O)N2[C@H]1C(=O)O [PENICILLIN G] | – | – | – | 3.12 µg/mL (≈ 9.35 µM) | 6.25 µg/mL (≈ 18.7 µM) | 1.56 µg/mL (≈ 4.67 µM) | – | 12.5 µg/mL (≈ 37.4 µM) | – | 12.5 µg/mL (≈ 37.4 µM) | 1.56 µg/mL (≈ 4.67 µM) | – | – | – | – | –
CCCCCCCC/C=C\CCCCCCCC(=O)Nc1nnc(S[C@@H]2O[C@H](CO)[C@H](O)[C@H](O)[C@H]2O)s1 | 8.8 µM | – | 43.6 µM | > 150 µg/mL | > 150 µg/mL | > 150 µg/mL | Not Active | > 150 µg/mL | – | > 150 µg/mL | > 150 µg/mL | Not Active | Not Active | – | – | –
CCCCCCCCCC(=O)Nc1nnc(S[C@@H]2O[C@H](CO)[C@H](O)[C@H](O)[C@H]2O)s1 | 25.9 µM | – | 53.1 µM | > 150 µg/mL | > 150 µg/mL | > 150 µg/mL | Not Active | > 150 µg/mL | – | > 150 µg/mL | > 150 µg/mL | Not Active | Not Active | – | – | –
CCCCCCCCCCCCCCCC(=O)Nc1nnc(S[C@@H]2O[C@H](COC(C)=O)[C@H](OC(C)=O)[C@H](OC(C)=O)[C@H]2OC(C)=O)s1 | 58.3 µM | 90.4 µM | 25.4 µM | inactive | inactive | inactive | Not Active | inactive | 30.1 µM | inactive | inactive | – | – | – | – | –
CCCCCCCC/C=C\CCCCCCCCCCCC(=O)Nc1nnc(S[C@@H]2O[C@H](COC(C)=O)[C@H](OC(C)=O)[C@H](OC(C)=O)[C@H]2OC(C)=O)s1 | 58.5 µM | 25.2 µM | 25.3 µM | inactive | inactive | inactive | Not Active | inactive | 28.4 µM | inactive | inactive | – | – | – | – | –
CCCCCCCCCCCCCC(=O)Nc1nnc(S[C@@H]2O[C@H](COC(C)=O)[C@H](OC(C)=O)[C@H](OC(C)=O)[C@H]2OC(C)=O)s1 | 61.3 µM | 16.3 µM | 26.2 µM | inactive | inactive | inactive | Not Active | inactive | 34.7 µM | inactive | inactive | – | – | – | – | –
C=CCCCCCCCCC(=O)Nc1nnc(S[C@@H]2O[C@H](CO)[C@H](O)[C@H](O)[C@H]2O)s1 | 58.3 µM | – | 80.6 µM | > 150 µg/mL | > 150 µg/mL | > 150 µg/mL | Not Active | > 150 µg/mL | – | > 150 µg/mL | > 150 µg/mL | Not Active | Not Active | – | – | –
C=CCCCCCCCCC(=O)Nc1nnc(S[C@@H]2O[C@H](COC(C)=O)[C@H](OC(C)=O)[C@H](OC(C)=O)[C@H]2OC(C)=O)s1 | 77.7 µM | 16.3 µM | 60.9 µM | inactive | inactive | inactive | Not Active | inactive | 22.9 µM | inactive | inactive | – | – | – | – | –
CCCCCCCC(=O)Nc1nnc(S[C@@H]2O[C@H](CO)[C@H](O)[C@H](O)[C@H]2O)s1 | 50.8 µM | 60.1 µM | 30.8 µM | > 150 µg/mL | > 150 µg/mL | > 150 µg/mL | – | > 150 µg/mL | – | > 150 µg/mL | > 150 µg/mL | Not Active | – | 56 µM | – | –
CCCCCCCCCCCC(=O)Nc1nnc(S[C@@H]2O[C@H](CO)[C@H](O)[C@H](O)[C@H]2O)s1 | 8.7 µM | – | 32 µM | > 150 µg/mL | 12.5 µg/mL (≈ 26.2 µM) | > 150 µg/mL | Not Active | > 150 µg/mL | – | > 150 µg/mL | 25 µg/mL (≈ 52.3 µM) | Not Active | Not Active | – | – | –
